Test results: patent US5847160A, “Acetylenes disubstituted with 2-tetrahydropyranoxy-aryl and aryl of heteroaryl groups having retinoid-like biological activity” (Allergan, priority 1997, dated 1998)

Assays:
[1] = system: ornithine decarboxylase (ODC); details: general knowledge; cited from earlier work
[2] = system: ornithine decarboxylase (ODC); assay: ODC assay: inhibition of TPA induction of ODC activity; type: in vivo; details: TPA-induced ODC
Excerpt: The retinoic acid-like activity of these compounds is confirmed through the classic measure of retinoic acid activity involving the effects of retlnoic acid on ornithine decarboxylase. The original work on the correlation between retinoic acid and decrease in cell proliferation was done by Verma & Boutwell, Cancer Research, 1977, 37,2196-2201. That reference discloses that ornithine decarboxylase (ODC) activity increased precedent to polyamine biosynthesis. It has been established elsewhere that increases in polyamine synthesis can be correlated or associated with cellular proliferation. Thus, if ODC activity could be inhibited, cell hyperproliferation could be modulated. […] Activity of exemplary compounds of the present invention in the above- described ODC assay is disclosed in Table 2 which provides either IC80 (or other measured per cent inhibition at the indicated concentration) for the respective exemplary compound.

Structure (SMILES)	% of inhib ([2]; at conc 300 (nmol))	further results
CCCCCCCCCCCCCC(=O)O[C@@H]1[C@@H](C)[C@@]2(O)[C@@H](C=C(CO)C[C@]3(O)C(=O)C(C)=C[C@@H]23)[C@@H]2C(C)(C)[C@]12OC(C)=O [12-0-tetradecanoylphorbol-13-acetate]		effect on ODC activity [1]: induces ODC activity
CCOC(=O)c1ccc(C#Cc2cccc(OC3CCCCO3)c2)nc1 (stereo not drawn) [Compound 16, Ethyl 6-[2-[[1-(2-tetrahydropyranoxy)]-3-phenyl]ethyn-1-yl]nicotinate]	52%	
CCOC(=O)c1ccc(C#Cc2ccc(OC3CCCCO3)c(C34CC5CC(CC(C5)C3)C4)c2)cc1 (stereo not drawn) [Compound 9]		% of inhib ([2]; at conc 30 (nmol)): 49%
COC(=O)c1ccc(C#Cc2ccc(OC3CCCCO3)c(C34CC5CC(CC(C5)C3)C4)c2)cc1 (stereo not drawn) [Compound 25]		% of inhib ([2]; at conc 30 (nmol)): 61%
CC1=C(/C=C/C(C)=C/C=C/C(C)=C/C(=O)O)C(C)(C)CCC1 [Retinoic acid]		effect on ODC activity [1]: inhibits this induction of ODC activity by TPA
CCOC(=O)c1ccc(C#Cc2ccc(C34CC5CC(CC(C5)C3)C4)c(OC3CCCCO3)c2)nc1 (stereo not drawn) [Compound 17]	68%	
CCOC(=O)c1ccc(C#Cc2ccc(C34CC5CC(CC(C5)C3)C4)c(OC3CCCCO3)c2)cc1 (stereo not drawn) [Compound 18, Ethyl 4-[2-[[2-(1-adamantyl)-1-(2-tetrahydropyranoxy)]-5-phenyl]ethyn-1-yl]benzoate]	45%	
O=C(O)c1ccc(C#Cc2ccc(C34CC5CC(CC(C5)C3)C4)c(OC3CCCCO3)c2)nc1 (stereo not drawn) [Compound 19]	45%	
O=C(O)c1ccc(C#Cc2ccc(OC3CCCCO3)cc2)nc1 (stereo not drawn) [Compound 15, 6-[2-[[1-(2-tetrahydropyranoxy)]-4-phenyl]ethyn-1-yl]nicotinic acid]	44%	
